Experimental data from patent US10730858B2, “Lactam, cyclic urea and carbamate, and triazolone derivatives as potent and selective rock inhibitors” (BRISTOL-MYERS SQUIBB COMPANY, priority 2016, dated 2020).
pIC50: −log10 of the molar value.

Molecular target: ROCK2 (Homo sapiens, UniProt O75116)
Test: ROCK2 assay (Caliper LABCHIP peptide phosphorylation, kinase inhibition)
Assay type: biochemical
Details: 5 μM ATP, 1.5 μM peptide substrate
Procedure: The effectiveness of compounds of the present invention as ROCK inhibitors can be determined in a 30 μL assay containing 20 mM HEPES, pH 7.5, 20 mM MgCl2, 0.015% Brij-35, 4 mM DTT, 5 μM ATP and 1.5 μM peptide substrate (FITC-AHA-AKRRRLSSLRA-OH) (SEQ ID NO. 1). Compounds were dissolved in DMSO so that the final concentration of DMSO was <2%, and the reaction was initiated with Rho kinase variants. After incubation, the reaction was terminated by the addition of EDTA and the phosphorylated and non-phosphorylated peptides separated using a LABCHIP® 3000 Reader (Caliper Life Sciences). […] Compounds were tested in dose-response format, and the inhibition of kinase activity was calculated at each concentration of compound. The inhibition data were fit using a curve-fitting program to determine the IC50; i.e., the concentration of compound required to inhibit 50% of kinase activity.
Representative Examples were tested in the ROCK2 assay described above and found having ROCK2 inhibitory activity. The ranges of the ROCK2 IC50 values are as follows: ROCK2 IC50: ++++ (<10 nM) +++ (10-100 nM) ++ (100-500 nM) + (500-2000 nM)

Sequence of ROCK2 (O75116 whole entry, species assumed): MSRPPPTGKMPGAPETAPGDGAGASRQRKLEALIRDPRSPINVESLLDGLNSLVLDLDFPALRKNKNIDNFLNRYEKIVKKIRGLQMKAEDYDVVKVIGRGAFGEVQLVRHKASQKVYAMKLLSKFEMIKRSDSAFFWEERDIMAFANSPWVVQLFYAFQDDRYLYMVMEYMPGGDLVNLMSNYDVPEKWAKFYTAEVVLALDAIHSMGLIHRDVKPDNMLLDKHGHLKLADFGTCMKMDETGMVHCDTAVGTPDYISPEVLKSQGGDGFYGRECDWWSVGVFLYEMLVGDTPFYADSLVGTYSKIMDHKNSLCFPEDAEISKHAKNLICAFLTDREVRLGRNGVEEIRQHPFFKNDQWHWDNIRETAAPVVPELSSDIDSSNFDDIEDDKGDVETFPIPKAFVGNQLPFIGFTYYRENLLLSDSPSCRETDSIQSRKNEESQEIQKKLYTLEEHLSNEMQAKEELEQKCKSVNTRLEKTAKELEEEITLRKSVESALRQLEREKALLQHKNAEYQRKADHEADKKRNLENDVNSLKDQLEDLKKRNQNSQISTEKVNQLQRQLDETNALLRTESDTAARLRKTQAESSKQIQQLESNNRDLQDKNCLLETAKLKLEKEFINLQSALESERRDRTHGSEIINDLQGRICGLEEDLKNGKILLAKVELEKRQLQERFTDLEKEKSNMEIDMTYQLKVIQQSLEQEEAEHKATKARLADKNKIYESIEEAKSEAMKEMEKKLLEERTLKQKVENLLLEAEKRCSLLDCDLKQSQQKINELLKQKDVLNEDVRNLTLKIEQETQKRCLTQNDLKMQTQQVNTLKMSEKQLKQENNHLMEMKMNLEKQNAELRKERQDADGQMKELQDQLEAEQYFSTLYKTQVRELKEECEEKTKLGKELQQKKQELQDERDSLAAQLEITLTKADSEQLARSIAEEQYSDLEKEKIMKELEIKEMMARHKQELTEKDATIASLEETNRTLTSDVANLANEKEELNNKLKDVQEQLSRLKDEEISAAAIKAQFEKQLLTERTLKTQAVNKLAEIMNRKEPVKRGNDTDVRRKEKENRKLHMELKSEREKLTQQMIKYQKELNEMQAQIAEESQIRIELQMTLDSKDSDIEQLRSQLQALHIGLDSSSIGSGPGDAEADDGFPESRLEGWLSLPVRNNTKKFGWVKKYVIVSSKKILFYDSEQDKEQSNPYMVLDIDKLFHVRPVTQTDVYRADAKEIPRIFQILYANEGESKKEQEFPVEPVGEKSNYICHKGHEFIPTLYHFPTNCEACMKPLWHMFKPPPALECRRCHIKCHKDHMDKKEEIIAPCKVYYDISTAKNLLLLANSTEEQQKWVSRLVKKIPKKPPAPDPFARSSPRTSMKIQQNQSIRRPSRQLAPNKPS

| SMILES | pIC50 |
| --- | --- |
| O=C1C(c2ccc(-c3n[nH]c(=O)c4ccccc34)cc2)CCN1c1ccccc1 (centres unmarked) [Example 9, 4-[4-(2-oxo-1-phenylpyrrolidin-3-yl)phenyl]-1,2-dihydrophthalazin-1-one] | 6.30 to 7.00 |
| O=C1CC(c2ccccc2)CN1c1ccc(-c2n[nH]c(=O)c3ccccc23)cc1 (centres unmarked) [Example 4, 4-[4-(2-oxo-4-phenylpyrrolidin-1-yl)phenyl]-1,2-dihydrophthalazin-1-one] | 6.30 to 7.00 |
| O=C(NCc1ccccc1)C1CCN(c2ccc(-c3n[nH]c(=O)c4ccccc34)cc2)C1=O (centres unmarked) [Example 7, N-benzyl-2-oxo-1-[4-(4-oxo-3,4-dihydrophthalazin-1-yl)phenyl]pyrrolidine-3-carboxamide] | 6.30 to 7.00 |
| O=C1C(Nc2ccc3c(c2)OCCCO3)CCN1c1ccc(-c2n[nH]c(=O)c3ccccc23)cc1 (single isomer, unassigned) [Example 76, 4-(4-{3-[(3,4-dihydro-2H-1,5-benzodioxepin-7-yl)amino]-2-oxopyrrolidin-1-yl}phenyl)-1,2-dihydrophthalazin-1-one] | 7.00 to 8.00 |
| O=C1C(Nc2cccc(F)n2)CCN1c1ccc(-c2n[nH]c(=O)c3ccccc23)cc1 (centres unmarked) [Example 69, 4-(4-{3-[(6-fluoropyridin-2-yl)amino]-2-oxopyrrolidin-1-yl}phenyl)-1,2-dihydrophthalazin-1-one] | 7.00 to 8.00 |
| O=C1OC(Cc2ccccc2)CN1c1ccc(-c2n[nH]c(=O)c3ccccc23)cc1 (centres unmarked) [Example 13, 4-[4-(5-benzyl-2-oxo-1,3-oxazolidin-3-yl)phenyl]-1,2-dihydrophthalazin-1-one] | 7.00 to 8.00 |
| C[C@@H]1OC(=O)N(c2ccc(-c3n[nH]c(=O)c4ccccc34)cc2)[C@@H]1c1ccccc1 [Example 23, 4-{4-[(4R,5S)-5-methyl-2-oxo-4-phenyl-1,3-oxazolidin-3-yl]phenyl}-1,2-dihydrophthalazin-1-one] | 5.70 to 6.30 |
| O=C1OC(C(O)(c2ccccc2)C(F)(F)F)CN1c1ccc(-c2n[nH]c(=O)c3ccccc23)cc1 (centres unmarked) [Example 22, 4-{4-[2-oxo-5-(2,2,2-trifluoro-1-hydroxy-1-phenylethyl)-1,3-oxazolidin-3-yl]phenyl}-1,2-dihydrophthalazin-1-one] | 5.70 to 6.30 |
| O=C1OC2CCCCC2N1c1ccc(-c2n[nH]c(=O)c3ccccc23)cc1 (centres unmarked) [Example 21, 4-[4-(2-oxo-octahydro-1,3-benzoxazol-3-yl)phenyl]-1,2-dihydrophthalazin-1-one] | 5.70 to 6.30 |
| O=C1C(c2ccc(-c3n[nH]c(=O)c4ccccc34)cc2)CCN1Cc1ccccc1 (centres unmarked) [Example 8, 4-[4-(1-benzyl-2-oxopyrrolidin-3-yl)phenyl]-1,2-dihydrophthalazin-1-one] | 5.70 to 6.30 |
| COc1cccc([C@@H](C)NC2CCN(c3ccc(-c4n[nH]c(=O)c5ccccc45)cc3)C2=O)c1 (stereo partly drawn) [Example 44, 4-[4-(3-{[(1R)-1-(3-methoxyphenyl)ethyl]amino}-2-oxopyrrolidin-1-yl)phenyl]-1,2-dihydrophthalazin-1-one] | 5.70 to 6.30 |
| O=C1C(Nc2ccc3c(c2)OCCCO3)CCN1c1ccc(-c2n[nH]c(=O)c3ccccc23)cc1 (centres unmarked) [Example 34, 4-(4-{3-[(3,4-dihydro-2H-1,5-benzodioxepin-7-yl)amino]-2-oxopyrrolidin-1-yl}phenyl)-1,2-dihydrophthalazin-1-one] | 7.00 to 8.00 |
| O=C1C(Nc2ccc3c(c2)OCO3)CCN1c1ccc(-c2n[nH]c(=O)c3ccccc23)cc1 (centres unmarked) [Example 33, 4-(4-{3-[(2H-1,3-benzodioxol-5-yl)amino]-2-oxopyrrolidin-1-yl}phenyl)-1,2-dihydrophthalazin-1-one] | 7.00 to 8.00 |
| CSc1cccc(NC2CCN(c3ccc(-c4n[nH]c(=O)c5ccccc45)cc3)C2=O)c1 (centres unmarked) [Example 68, 4-[4-(3-{[3-(methylsulfanyl)phenyl]amino}-2-oxopyrrolidin-1-yl)phenyl]-1,2-dihydrophthalazin-1-one] | 7.00 to 8.00 |
| O=C1N(c2ccc(-c3n[nH]c(=O)c4ccccc34)cc2)CCN1c1cccnc1 [Example 11, 4-{4-[2-oxo-3-(pyridin-3-yl)imidazolidin-1-yl]phenyl}-1,2-dihydrophthalazin-1-one] | 7.00 to 8.00 |
| O=C1COc2cc(NC3CCN(c4ccc(-c5n[nH]c(=O)c6ccccc56)cc4)C3=O)ccc2N1 (single isomer, unassigned) [Example 82, 7-({2-oxo-1-[4-(4-oxo-3,4-dihydrophthalazin-1-yl)phenyl]pyrrolidin-3-yl}amino)-3,4-dihydro-2H-1,4-benzoxazin-3-one] | > 8.00 |
| O=C1OC(c2ccccc2)CN1c1ccc(-c2n[nH]c(=O)c3ccccc23)cc1 (centres unmarked) [Example 15, 4-[4-(2-oxo-5-phenyl-1,3-oxazolidin-3-yl)phenyl]-1,2-dihydrophthalazin-1-one] | 7.00 to 8.00 |
| O=C1C(Nc2cccc(OC(F)F)c2)CCN1c1ccc(-c2n[nH]c(=O)c3ccccc23)cc1 (single isomer, unassigned) [Example 55, 4-[4-(3-{[3-(difluoromethoxy)phenyl]amino}-2-oxopyrrolidin-1-yl)phenyl]-1,2-dihydrophthalazin-1-one] | 7.00 to 8.00 |
| O=C1OCC(c2ccccc2)N1c1ccc(-c2n[nH]c(=O)c3ccccc23)cc1 (centres unmarked) [Example 14, 4-[4-(2-oxo-4-phenyl-1,3-oxazolidin-3-yl)phenyl]-1,2-dihydrophthalazin-1-one] | 6.30 to 7.00 |
| COc1cccc(OC2CCN(c3ccc(-c4n[nH]c(=O)c5ccccc45)cc3)C2=O)c1 (centres unmarked) [Example 86, 4-{4-[3-(3-methoxyphenoxy)-2-oxopyrrolidin-1-yl]phenyl}-1,2-dihydrophthalazin-1-one] | 7.00 to 8.00 |
| O=C1C(Nc2cccc(OC(F)F)c2)CCN1c1ccc(-c2c[nH]c(=O)c3ccccc23)cc1 (single isomer, unassigned) [Example 79, 4-[4-(3-{[3-(difluoromethoxy)phenyl]amino}-2-oxopyrrolidin-1-yl)phenyl]-1,2-dihydroisoquinolin-1-one] | > 8.00 |
| Cn1ccc(NC2CCN(c3ccc(-c4n[nH]c(=O)c5ccccc45)cc3)C2=O)n1 (centres unmarked) [Example 65, 4-(4-{3-[(1-methyl-1H-pyrazol-3-yl)amino]-2-oxopyrrolidin-1-yl}phenyl)-1,2-dihydrophthalazin-1-one] | 6.30 to 7.00 |
| CC(C)Oc1cccc(NC2CCN(c3ccc(-c4n[nH]c(=O)c5ccccc45)cc3)C2=O)c1 (centres unmarked) [Example 57, 4-[4-(2-oxo-3-{[3-(propan-2-yloxy)phenyl]amino}pyrrolidin-1-yl)phenyl]-1,2-dihydrophthalazin-1-one] | 7.00 to 8.00 |
| COc1cc(C)cc(NC2CCN(c3ccc(-c4n[nH]c(=O)c5ccccc45)cc3)C2=O)c1 (centres unmarked) [Example 38, 4-(4-{3-[(3-methoxy-5-methylphenyl)amino]-2-oxopyrrolidin-1-yl}phenyl)-1,2-dihydrophthalazin-1-one] | 7.00 to 8.00 |
| COc1ccc(F)c(NC2CCN(c3ccc(-c4n[nH]c(=O)c5ccccc45)cc3)C2=O)c1 (centres unmarked) [Example 37, 4-(4-{3-[(2-fluoro-5-methoxyphenyl)amino]-2-oxopyrrolidin-1-yl}phenyl)-1,2-dihydrophthalazin-1-one] | 7.00 to 8.00 |
| CC(C)n1ccc(NC2CCN(c3ccc(-c4n[nH]c(=O)c5ccccc45)cc3)C2=O)n1 (centres unmarked) [Example 64, 4-[4-(2-oxo-3-{[1-(propan-2-yl)-1H-pyrazol-3-yl]amino}pyrrolidin-1-yl)phenyl]-1,2-dihydrophthalazin-1-one] | 7.00 to 8.00 |
